Measured values published in ChEMBL document CHEMBL5715260, “Selectivity Literature for EUbOPEN Chemogenomic Library” (2024).

Key:
[1] = target: T1, Hepatocyte nuclear factor 4-alpha (Homo sapiens) (UniProt P41235); assay: Selectivity interaction (Reporter gene assay) EUB0000573a HNF4A; design: recommended concentration 1 uM
T1 sequence (whole entry): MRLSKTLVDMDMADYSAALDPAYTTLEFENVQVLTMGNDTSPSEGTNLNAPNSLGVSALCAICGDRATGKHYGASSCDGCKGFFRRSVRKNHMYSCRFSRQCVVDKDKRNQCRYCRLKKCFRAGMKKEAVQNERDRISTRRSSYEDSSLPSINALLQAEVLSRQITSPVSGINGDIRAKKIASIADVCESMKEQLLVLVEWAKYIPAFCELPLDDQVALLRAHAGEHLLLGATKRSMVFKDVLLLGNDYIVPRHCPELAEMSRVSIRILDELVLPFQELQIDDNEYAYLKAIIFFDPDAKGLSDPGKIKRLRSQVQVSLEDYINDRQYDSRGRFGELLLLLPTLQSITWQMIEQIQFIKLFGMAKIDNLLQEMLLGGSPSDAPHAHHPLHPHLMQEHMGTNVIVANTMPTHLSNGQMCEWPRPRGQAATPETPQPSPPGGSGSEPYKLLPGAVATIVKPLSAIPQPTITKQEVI

[2] = target: Nuclear receptor subfamily 4immunitygroup A member 1 (Homo sapiens) (UniProt P22736); assay: Selectivity interaction (Reporter gene assay) EUB0000573a NR4A1; design: recommended concentration 1 uM
[3] = target: T2, Alpha trans-inducing protein (Human alphaherpesvirus 1) (UniProt A0A5J6DW59); assay: Selectivity interaction (Reporter gene assay) EUB0000573a UL48; design: recommended concentration 1 uM
[4] = target: T3, Nuclear receptor subfamily 2 group C member 1 (Homo sapiens) (UniProt P13056); assay: Selectivity interaction (Reporter gene assay) EUB0000573a NR2C1; design: recommended concentration 1 uM
T3 sequence (whole entry): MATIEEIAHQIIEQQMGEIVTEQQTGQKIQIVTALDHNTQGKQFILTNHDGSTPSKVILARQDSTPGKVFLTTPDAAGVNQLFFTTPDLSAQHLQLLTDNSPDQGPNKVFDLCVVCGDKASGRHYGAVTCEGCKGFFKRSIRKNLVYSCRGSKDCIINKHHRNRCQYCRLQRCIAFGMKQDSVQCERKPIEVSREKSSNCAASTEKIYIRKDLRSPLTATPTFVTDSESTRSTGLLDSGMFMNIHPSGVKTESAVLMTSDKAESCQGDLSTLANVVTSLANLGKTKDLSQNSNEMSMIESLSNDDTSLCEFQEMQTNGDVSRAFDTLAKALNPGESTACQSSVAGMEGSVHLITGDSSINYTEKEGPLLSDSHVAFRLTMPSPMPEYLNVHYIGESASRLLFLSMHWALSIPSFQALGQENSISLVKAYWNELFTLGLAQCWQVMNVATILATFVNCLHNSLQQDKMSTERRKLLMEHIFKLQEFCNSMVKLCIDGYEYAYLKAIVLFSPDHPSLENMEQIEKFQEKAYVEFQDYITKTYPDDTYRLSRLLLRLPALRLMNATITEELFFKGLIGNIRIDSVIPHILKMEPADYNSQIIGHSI

[5] = target: Steroidogenic factor 1 (Homo sapiens) (UniProt Q13285); assay: Selectivity interaction (Reporter gene assay) EUB0000573a NR5A1; design: recommended concentration 1 uM
[6] = target: T4, Retinoic acid receptor RXR-alpha (Homo sapiens) (UniProt P19793); assay: Selectivity interaction (Reporter gene assay) EUB0000573a RXRA; design: recommended concentration 1 uM; settings: reference bexarotene 1 uM, Selectivity number of off-targets 0.0, Selectivity number of targets 1.0, Source Knowledge inhouse
T4 sequence (whole entry): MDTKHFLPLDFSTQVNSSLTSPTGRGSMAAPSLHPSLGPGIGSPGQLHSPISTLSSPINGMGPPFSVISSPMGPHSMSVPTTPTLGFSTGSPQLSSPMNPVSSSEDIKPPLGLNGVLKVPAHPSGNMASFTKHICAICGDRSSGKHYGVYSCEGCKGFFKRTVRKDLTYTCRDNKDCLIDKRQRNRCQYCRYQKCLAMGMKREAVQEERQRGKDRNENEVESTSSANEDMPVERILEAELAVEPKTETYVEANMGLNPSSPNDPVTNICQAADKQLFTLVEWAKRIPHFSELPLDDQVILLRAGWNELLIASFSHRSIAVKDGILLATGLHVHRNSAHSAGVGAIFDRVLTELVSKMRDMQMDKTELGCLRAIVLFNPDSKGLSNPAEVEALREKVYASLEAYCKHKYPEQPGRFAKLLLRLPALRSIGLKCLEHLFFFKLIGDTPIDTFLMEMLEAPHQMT

[7] = target: Nuclear receptor subfamily 2 group E member 1 (Homo sapiens) (UniProt Q9Y466); assay: Selectivity interaction (Reporter gene assay) EUB0000573a NR2E1; design: recommended concentration 1 uM
[8] = target: Nuclear receptor subfamily 4immunitygroup A member 1 (Homo sapiens) (UniProt P22736); assay: Selectivity interaction (Reporter gene assay) EUB0000581a NR4A1; design: recommended concentration 1 uM
[9] = target: T5, Peroxisome proliferator-activated receptor gamma (Homo sapiens) (UniProt P37231); assay: Selectivity interaction (Reporter gene assay) EUB0000581a PPARG; design: recommended concentration 1 uM; settings: screened at recom. conc., Selectivity number of off-targets 1.0, Selectivity number of targets 19.0, Source Knowledge inhouse
T5 sequence (whole entry): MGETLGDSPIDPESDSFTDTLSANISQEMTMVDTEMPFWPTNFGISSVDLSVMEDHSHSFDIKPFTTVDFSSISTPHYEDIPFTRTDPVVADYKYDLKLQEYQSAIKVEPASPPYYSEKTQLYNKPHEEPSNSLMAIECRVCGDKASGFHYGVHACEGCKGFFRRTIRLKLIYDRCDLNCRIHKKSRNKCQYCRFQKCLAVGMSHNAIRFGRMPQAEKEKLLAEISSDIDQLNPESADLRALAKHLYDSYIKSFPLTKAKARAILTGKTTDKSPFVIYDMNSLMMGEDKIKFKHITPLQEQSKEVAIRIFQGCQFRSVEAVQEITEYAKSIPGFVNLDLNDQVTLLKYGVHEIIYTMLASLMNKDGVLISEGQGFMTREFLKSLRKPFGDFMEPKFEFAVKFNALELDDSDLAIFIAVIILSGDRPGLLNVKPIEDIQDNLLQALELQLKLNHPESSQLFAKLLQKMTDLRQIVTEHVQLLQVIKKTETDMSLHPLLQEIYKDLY

[10] = target: T3, Nuclear receptor subfamily 2 group C member 1 (Homo sapiens); assay: Selectivity interaction (Reporter gene assay) EUB0000581a NR2C1; design: recommended concentration 1 uM
[11] = target: Nuclear receptor subfamily 2 group E member 1 (Homo sapiens) (UniProt Q9Y466); assay: Selectivity interaction (Reporter gene assay) EUB0000581a NR2E1; design: recommended concentration 1 uM
[12] = target: T4, Retinoic acid receptor RXR-alpha (Homo sapiens); assay: Selectivity interaction (Reporter gene assay) EUB0000581a RXRA; design: recommended concentration 1 uM; settings: reference bexarotene 1 uM, Selectivity number of off-targets 0.0, Selectivity number of targets 1.0, Source Knowledge inhouse
[13] = target: T1, Hepatocyte nuclear factor 4-alpha (Homo sapiens); assay: Selectivity interaction (Reporter gene assay) EUB0000581a HNF4A; design: recommended concentration 1 uM
[14] = target: T2, Alpha trans-inducing protein (Human alphaherpesvirus 1); assay: Selectivity interaction (Reporter gene assay) EUB0000581a UL48; design: recommended concentration 1 uM
[15] = target: Steroidogenic factor 1 (Homo sapiens) (UniProt Q13285); assay: Selectivity interaction (Reporter gene assay) EUB0000581a NR5A1; design: recommended concentration 1 uM
[16] = target: T1, Hepatocyte nuclear factor 4-alpha (Homo sapiens); assay: Selectivity interaction (Reporter gene assay) EUB0000583a HNF4A; design: recommended concentration 1 uM
[17] = target: Steroidogenic factor 1 (Homo sapiens) (UniProt Q13285); assay: Selectivity interaction (Reporter gene assay) EUB0000583a NR5A1; design: recommended concentration 1 uM
[18] = target: T4, Retinoic acid receptor RXR-alpha (Homo sapiens); assay: Selectivity interaction (Reporter gene assay) EUB0000583a RXRA; design: recommended concentration 1 uM; settings: reference bexarotene 1 uM, Selectivity number of off-targets 0.0, Selectivity number of targets 1.0, Source Knowledge inhouse
[19] = target: Nuclear receptor subfamily 2 group E member 1 (Homo sapiens) (UniProt Q9Y466); assay: Selectivity interaction (Reporter gene assay) EUB0000583a NR2E1; design: recommended concentration 1 uM
[20] = target: T3, Nuclear receptor subfamily 2 group C member 1 (Homo sapiens); assay: Selectivity interaction (Reporter gene assay) EUB0000583a NR2C1; design: recommended concentration 1 uM
[21] = target: T2, Alpha trans-inducing protein (Human alphaherpesvirus 1); assay: Selectivity interaction (Reporter gene assay) EUB0000583a UL48; design: recommended concentration 1 uM
[22] = target: Nuclear receptor subfamily 4immunitygroup A member 1 (Homo sapiens) (UniProt P22736); assay: Selectivity interaction (Reporter gene assay) EUB0000583a NR4A1; design: recommended concentration 1 uM
[23] = target: T3, Nuclear receptor subfamily 2 group C member 1 (Homo sapiens); assay: Selectivity interaction (Reporter gene assay) EUB0000574a NR2C1; design: recommended concentration 10 uM
[24] = target: Nuclear receptor subfamily 2 group E member 1 (Homo sapiens) (UniProt Q9Y466); assay: Selectivity interaction (Reporter gene assay) EUB0000574a NR2E1; design: recommended concentration 10 uM
[25] = target: T4, Retinoic acid receptor RXR-alpha (Homo sapiens); assay: Selectivity interaction (Reporter gene assay) EUB0000574a RXRA; design: recommended concentration 10 uM; settings: reference bexarotene 1 uM, Selectivity number of off-targets 0.0, Selectivity number of targets 1.0, Source Knowledge inhouse
[26] = target: Steroidogenic factor 1 (Homo sapiens) (UniProt Q13285); assay: Selectivity interaction (Reporter gene assay) EUB0000574a NR5A1; design: recommended concentration 10 uM
[27] = target: Nuclear receptor subfamily 4immunitygroup A member 1 (Homo sapiens) (UniProt P22736); assay: Selectivity interaction (Reporter gene assay) EUB0000574a NR4A1; design: recommended concentration 10 uM
[28] = target: T1, Hepatocyte nuclear factor 4-alpha (Homo sapiens); assay: Selectivity interaction (Reporter gene assay) EUB0000574a HNF4A; design: recommended concentration 10 uM
[29] = target: T2, Alpha trans-inducing protein (Human alphaherpesvirus 1); assay: Selectivity interaction (Reporter gene assay) EUB0000574a UL48; design: recommended concentration 10 uM
[30] = target: Steroidogenic factor 1 (Homo sapiens) (UniProt Q13285); assay: Selectivity interaction (Reporter gene assay) EUB0000576a NR5A1; design: recommended concentration 1 uM
[31] = target: T4, Retinoic acid receptor RXR-alpha (Homo sapiens); assay: Selectivity interaction (Reporter gene assay) EUB0000576a RXRA; design: recommended concentration 1 uM; settings: reference bexarotene 1 uM, Selectivity number of off-targets 0.0, Selectivity number of targets 1.0, Source Knowledge inhouse
[32] = target: Nuclear receptor subfamily 2 group E member 1 (Homo sapiens) (UniProt Q9Y466); assay: Selectivity interaction (Reporter gene assay) EUB0000576a NR2E1; design: recommended concentration 1 uM
[33] = target: Nuclear receptor subfamily 4immunitygroup A member 1 (Homo sapiens) (UniProt P22736); assay: Selectivity interaction (Reporter gene assay) EUB0000576a NR4A1; design: recommended concentration 1 uM
[34] = target: T1, Hepatocyte nuclear factor 4-alpha (Homo sapiens); assay: Selectivity interaction (Reporter gene assay) EUB0000576a HNF4A; design: recommended concentration 1 uM
[35] = target: T3, Nuclear receptor subfamily 2 group C member 1 (Homo sapiens); assay: Selectivity interaction (Reporter gene assay) EUB0000576a NR2C1; design: recommended concentration 1 uM
[36] = target: T2, Alpha trans-inducing protein (Human alphaherpesvirus 1); assay: Selectivity interaction (Reporter gene assay) EUB0000576a UL48; design: recommended concentration 1 uM

Nuclear receptor subfamily 4immunitygroup A member 1 (Homo sapiens), sequence (P22736 whole entry): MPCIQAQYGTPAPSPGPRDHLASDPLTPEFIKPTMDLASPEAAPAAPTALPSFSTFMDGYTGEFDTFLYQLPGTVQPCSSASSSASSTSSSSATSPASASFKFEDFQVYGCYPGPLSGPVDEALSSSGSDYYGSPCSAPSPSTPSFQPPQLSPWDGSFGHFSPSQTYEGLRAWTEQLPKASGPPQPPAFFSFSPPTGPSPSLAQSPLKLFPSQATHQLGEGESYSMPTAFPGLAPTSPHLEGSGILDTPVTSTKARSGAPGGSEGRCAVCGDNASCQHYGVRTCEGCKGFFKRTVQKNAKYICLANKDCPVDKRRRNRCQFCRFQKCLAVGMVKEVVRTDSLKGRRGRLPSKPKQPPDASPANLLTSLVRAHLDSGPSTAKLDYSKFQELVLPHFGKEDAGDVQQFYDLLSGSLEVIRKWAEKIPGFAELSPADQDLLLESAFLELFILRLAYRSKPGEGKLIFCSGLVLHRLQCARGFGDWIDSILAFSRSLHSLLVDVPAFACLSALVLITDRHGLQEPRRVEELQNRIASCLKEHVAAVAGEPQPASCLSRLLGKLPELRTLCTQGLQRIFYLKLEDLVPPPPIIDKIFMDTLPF
T2 sequence (A0A5J6DW59 as listed by the source): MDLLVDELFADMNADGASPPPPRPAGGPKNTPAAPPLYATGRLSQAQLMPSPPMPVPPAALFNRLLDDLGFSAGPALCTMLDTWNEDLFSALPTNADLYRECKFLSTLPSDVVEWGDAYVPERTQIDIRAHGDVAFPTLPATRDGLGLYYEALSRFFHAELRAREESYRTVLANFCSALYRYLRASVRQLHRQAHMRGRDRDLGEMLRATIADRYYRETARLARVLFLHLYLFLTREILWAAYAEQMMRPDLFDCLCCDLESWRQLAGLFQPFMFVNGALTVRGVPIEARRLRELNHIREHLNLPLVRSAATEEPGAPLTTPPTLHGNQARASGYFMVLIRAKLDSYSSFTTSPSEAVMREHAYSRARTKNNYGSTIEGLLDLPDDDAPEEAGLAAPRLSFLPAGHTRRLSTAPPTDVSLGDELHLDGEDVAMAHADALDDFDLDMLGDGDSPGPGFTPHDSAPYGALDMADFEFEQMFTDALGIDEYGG
Nuclear receptor subfamily 2 group E member 1 (Homo sapiens), sequence (Q9Y466 whole entry): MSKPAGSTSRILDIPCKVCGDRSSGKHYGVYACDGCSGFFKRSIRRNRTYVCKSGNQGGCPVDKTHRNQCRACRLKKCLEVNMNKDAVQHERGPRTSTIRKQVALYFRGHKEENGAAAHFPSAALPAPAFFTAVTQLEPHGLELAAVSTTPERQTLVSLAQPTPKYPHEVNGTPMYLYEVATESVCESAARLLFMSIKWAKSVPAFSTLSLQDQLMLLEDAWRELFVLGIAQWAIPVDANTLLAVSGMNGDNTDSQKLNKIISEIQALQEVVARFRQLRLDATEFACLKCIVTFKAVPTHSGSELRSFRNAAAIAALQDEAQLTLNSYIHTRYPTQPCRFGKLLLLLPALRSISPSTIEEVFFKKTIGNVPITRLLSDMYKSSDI
Steroidogenic factor 1 (Homo sapiens), sequence (Q13285 whole entry): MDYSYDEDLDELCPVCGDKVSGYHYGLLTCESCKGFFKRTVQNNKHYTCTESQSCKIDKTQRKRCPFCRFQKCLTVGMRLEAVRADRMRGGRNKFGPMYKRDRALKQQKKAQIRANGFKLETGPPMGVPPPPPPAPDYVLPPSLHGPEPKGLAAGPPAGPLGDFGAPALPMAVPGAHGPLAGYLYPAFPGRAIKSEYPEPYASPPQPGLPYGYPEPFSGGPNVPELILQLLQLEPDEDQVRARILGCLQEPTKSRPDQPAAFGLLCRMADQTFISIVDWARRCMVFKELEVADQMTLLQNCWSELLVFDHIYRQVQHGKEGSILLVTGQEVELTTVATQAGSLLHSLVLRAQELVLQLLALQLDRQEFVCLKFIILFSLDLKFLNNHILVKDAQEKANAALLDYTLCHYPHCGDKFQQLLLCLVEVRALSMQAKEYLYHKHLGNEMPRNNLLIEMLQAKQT

## CC(C)OC(=O)C1=CN(C(=O)c2ccc(F)c(F)c2)CC(C)(C)c2c1[nH]c1ccccc21
[1]
  Fold activation: 1.02
[2]
  Fold activation: 1.03
[3]
  P-value: 1.36e-05
[4]
  Fold activation: 1.3
[5]
  Fold activation: 1.12
[6]
  Relative activation: 0.671%
[7]
  Fold activation: 1.46

## CC(C)c1ccc(CC(=O)N2CCC[C@@H](c3cccc(OC(C)(C)C(=O)O)c3)C2)cc1
[8]
  Fold activation: 1.08
[9]
  Fold activation: 3.39
[10]
  Fold activation: 1.13
[11]
  Remaining activity: 0.846
[12]
  Relative activation: 0.86%
[13]
  Fold activation: 1.11
[14]
  P-value: 0.0017
[15]
  Fold activation: 1.08

## C=C1/C(=C\C=C2/CCC[C@]3(C)[C@@H]([C@H](C)/C=C/[C@H](C)C(C)C)CC[C@@H]23)C[C@@H](O)C[C@@H]1O
[16]
  Remaining activity: 0.993
[17]
  Fold activation: 1.08
[18]
  Relative activation: 0.635%
[19]
  Remaining activity: 0.883
[20]
  Fold activation: 1.19
[21]
  P-value: 0.000557
[22]
  Remaining activity: 0.837

## CO[C@H]1/C=C/O[C@@]2(C)Oc3c(C)c(O)c4c(O)c(c(/C=N/N5CCN(C)CC5)c(O)c4c3C2=O)NC(=O)/C(C)=C\C=C\[C@H](C)[C@H](O)[C@@H](C)[C@@H](O)[C@@H](C)[C@H](OC(C)=O)[C@@H]1C
[23]
  Fold activation: 1.14
[24]
  Fold activation: 1.33
[25]
  Relative activation: 0.683%
[26]
  Remaining activity: 0.952
[27]
  Fold activation: 1.04
[28]
  Fold activation: 1.04
[29]
  P-value: 0.000527

## CCOP(=O)(OCC)C(=Cc1cc(C(C)(C)C)c(O)c(C(C)(C)C)c1)P(=O)(OCC)OCC
[30]
  Fold activation: 1.01
[31]
  Relative activation: 0.581%
[32]
  Remaining activity: 0.795
[33]
  Remaining activity: 0.959
[34]
  Remaining activity: 0.935
[35]
  Fold activation: 1.37
[36]
  P-value: 0.0136
